Data published in patent US20080293699A1, “Inhibitors of thapsigargin-induced cell death” (priority 2007, published 2008).
Read-outs that look alike come from different tables or passages of the source.

System: CSM14.1 cells
Assay: Primary HTS assay: ATP content (ATPlite) of undifferentiated CSM14.1 cells challenged with thapsigargin
Type: cell-based, rat
Conditions: thapsigargin-induced death of undifferentiated CSM14.1, ATP content
Excerpt: For convenience, and because transient reductions in temperature that might be associated with large screening experiments could restore Large T activity, we elected to develop our HTS using undifferentiated CSM14.1 cells, with the plan to then confirm hits using differentiated cells. For monitoring cell death, we used a commercially available bioluminescence reagent that determines intracellular ATP content, without requirement for complicated cell processing steps (ATPlite, Perkin Elmer). Thus, ATP was used as a surrogate indicator of cell survival for the primary assay.
Undifferentiated or differentiated CSM14.1 cells were plated at a density of 3,000 cells/well in 40 μL DMEM medium (containing 10% serum, 1 mM L-glutamine, and antibiotics) in 96 well flat-bottom microtiter plates composed of polystrene (Greiner Bio One, polystyrene, white wall, flat bottom, lumitrac, high binding). After overnight incubation at 32° C., DMSO (0.5% v/v) or 100 uM Salubrinal (Sal) in DMSO was delivered. After 2 hrs, 5 uL of a stock solution of 150 uM TG in DMEM medium containing 0.75% (v:v) DMSO to achieve a final concentration of approximately 15 uM. After culturing for 24 hrs, cellular ATP content was measured by addition of 20 uL per well of ATPlite solution (Perkin-Elmer), and then the plates were incubated for three minutes at room temperature, before reading with a Microplate Luminometer (BD Pharmingen Moonlight model 3096).
To determine the reproducibility of the ATP content assay, we prepared a 96-well plate in which half the wells received TG plus DMSO (assay minimum) and half received TG plus Salubrinal (assay maximum), then performed the ATP content studies using undifferentiated CSM14.1 cells (FIG. 6). CSM14.1 cells were cultured overnight at 3,000 cells per well in 96-well flat-bottom plates, then either DMSO (0.5% final concentration) or Salubrinal (100 μM) in DMSO (0.5% final concentration) was added to half the well (48 each). After two hrs, TG was added to all wells (15 μM final). Cells were cultured for 24 hrs, then the ATP content was measured using the ATPlite luminogenic assay. We then adapted this assay to the high-throughput environment, using a Biomex™ FX liquid handler for automated dispensing of assay components into microwells of 96-well plates. First, undifferentiated CSM14.1 cells were grown at 32° C. in DMEM medium supplemented with 10% fetal bovine serum (FBS), 1% penicillin/streptomycin, and 1% L-glutamine in 150 mm×25 mm polystyrene culture dishes to produce approximately 3×10^6 cells. Second, CSM14.1 cells were recovered from cultures by trypsinization when at 80-90% confluence, and suspended at 7.5×10^4 cells/mL in DMEM medium containing 2% FBS, 1 mM L-glutamine, and antibiotics 100 IU penicillin 100 μg/ml streptomycin. Third, the cell suspension was then delivered at 40 μL per well of 96-well plastic microtiter plates (Greiner Bio One, polystyrene, white wall, flat bottom, lumitrac, high binding, cat #655074), and the plates were cultured overnight at 32° C. in a humidified atmosphere in 95% air: 5% CO2. Fourth, using the automated liquid handler, 5 μL of test compounds in 10% DMSO were added to wells in columns 2-11 of the 96-well plates (leaving columns 1 and 12 intact) to achieve an approximate final concentration of 15 μg/mL test compound and a final concentration of 1% DMSO. Fifth, 5 μL of 1 mM Salubrinal in a solution of 10% DMSO:90% DMEM was added to wells of column 1/rows A-D of each plate, while 5 μL of 10% DMSO:90% DMEM solution was added to wells corresponding to column 1/rows E-H and to all wells in column 12. Sixth, the plates were returned to culture.

[1] = one value given, read-out: IC50
[2] = first assay, read-out: IC50 (μM), first value
[3] = second assay (value in bold), read-out: IC50 (μM), value from a second assay
[4] = Rattus norvegicus, one value given, read-out: IC50

SMILES | IC50 [1] [µM] | IC50 [2] [µM] | IC50 [3] [µM] | IC50 [4] [µM]
CCN(CC)c1ccc(C2=Nc3ccccc3NC3=C2C(=O)CC(c2ccc(Cl)cc2)C3)cc1 (racemic) [MLS-0292126] | 16.5 | – | – | –
COc1ccc(C2CC(=O)C3=C(C2)Nc2ccccc2NC3c2cccc(O)c2)cc1OC (centres unmarked) [Compound 3192-5300] | 53.5 ± 3.45 | – | – | –
CCOc1ccc(C2CC(=O)C3=C(C2)Nc2ccccc2NC3c2cc(F)ccc2Cl)cc1OC (centres unmarked) [Compound 5991-0620] | > 200 | – | – | –
COc1ccccc1CN1CCN(C(=O)c2cc(OC)c(OC)c(OC)c2)CC1 [Compound 5397316] | > 200 | – | – | –
CCn1c2ccccc2c2cc(CN3CCN(C(=O)c4cc(OC)c(OC)c(OC)c4)CC3)ccc21 [Compound 5397372] | – | 18.9 ± 0.568 | 13.5 ± 2.02 | –
O=C(C(c1ccccc1)c1ccccc1)N1CCN(Cc2ccccc2[N+](=O)[O-])CC1 [Compound 5948365] | 19.5 | – | – | –
CCn1c2ccccc2c2cc(CN3CCN(C(=O)c4cccs4)CC3)ccc21 [Compound 5951613] | – | 16.74 ± 0.158 | 12.7 ± 1.11 | –
COc1ccc(CN2CCN(C(=O)c3ccc(-c4ccccc4)cc3)CC2)c(OC)c1 [Compound 5955734] | – | 23.8 | 16.5 ± 1.47 | –
CSc1ccc(C2Nc3ccccc3NC3=C2C(=O)CC(c2ccccc2)C3)cc1 (centres unmarked) [Compound 5963958] | 12.5 ± 0.179 | 18.6 ± 9.14 | 12.5 ± 0.179 | –
COc1ccc(C2CC(=O)C3=C(C2)Nc2ccccc2NC3c2cccc(Cl)c2)cc1 (centres unmarked) [Compound 5969327, 11-(3-chlorophenyl)-3-(4-methoxyphenyl)-2,3,4,5,10,11-hexahydro-1H-dibenzo[b,e][1,4]diazepin-1-one] | – | – | – | 21.7 ± 1.07
CCN(CC)c1ccc(C2Nc3ccccc3NC3=C2C(=O)CC(c2ccc(OC)cc2)C3)cc1 (centres unmarked) [Compound 5969590] | 11.4 ± 1.49 | – | – | –
COc1ccc(Br)cc1CN1CCN(C(=O)c2ccc(-c3ccccc3)cc2)CC1 [Compound 5990041] | – | 12.8 ± 0.318 | 14.2 ± 1.2 | –
CCOc1ccc(CN2CCN(C(=O)c3ccc(-c4ccccc4)cc3)CC2)cc1 [Compound 5990076, 1-(4-biphenylylcarbonyl)-4-(4-ethoxybenzyl)piperazine] | – | – | – | > 200
COc1ccc(OC)c(CN2CCN(C(=O)c3ccc(-c4ccccc4)cc3)CC2)c1 [Compound 5990137] | – | 17.5 ± 0.675 | 13.9 ± 1.06 | –
COc1ccccc1CN1CCN(C(=O)c2ccc(-c3ccccc3)cc2)CC1 [Compound 5996087, 1-(4-biphenylylcarbonyl)-4-(2-methoxybenzyl)piperazine] | – | – | – | 25 to 50
CCn1c2ccccc2c2cc(CN3CCN(C(=O)c4ccc(OC)c(OC)c4)CC3)ccc21 [Compound 6033352] | – | 13.4 ± 0.248 | 13.8 ± 0.548 | –
CCn1c2ccccc2c2cc(CN3CCN(C(=O)c4ccc([N+](=O)[O-])cc4)CC3)ccc21 [Compound 6034674] | – | 15 ± 0.495 | 11.5 ± 0.501 | –
COc1cccc(CN2CCN(C(=O)c3ccc(-c4ccccc4)cc3)CC2)c1OC [Compound 6035098] | – | 19.8 ± 0.721 | 16.6 ± 2.03 | –
COc1ccc(C2CC(=O)C3=C(C2)Nc2ccccc2NC3c2ccccc2OC(C)C)cc1 (centres unmarked) [Compound 6043556, 11-(2-isopropoxyphenyl)-3-(4-methoxyphenyl)-2,3,4,5,10,11-hexahydro-1H-dibenzo[b,e][1,4]diazepin-1-one] | – | – | – | 24 ± 2.31
COc1ccc(C2CC(=O)C3=C(C2)Nc2ccccc2NC3c2c(F)cccc2Cl)cc1 (centres unmarked) [Compound 6044487] | 15.3 ± 1.51 | – | – | –
CCOc1cccc(C2Nc3ccccc3NC3=C2C(=O)CC(c2ccc(OC)cc2)C3)c1 (centres unmarked) [Compound 6044673] | 21.2 ± 0.362 | 20.2 ± 0.781 | 21.2 ± 0.362 | –

SMILES | IC50 [1] [µM] | IC50 [2] [µM] | IC50 [3] [µM] | IC50 [4] [µM]
COc1ccc(C2CC(=O)C3=C(C2)Nc2ccccc2NC3c2ccc(O)cc2)cc1 (centres unmarked) [Compound 6045744, 11-(4-hydroxyphenyl)-3-(4-methoxyphenyl)-2,3,4,5,10,11-hexahydro-1H-dibenzo[b,e][1,4]diazepin-1-one] | – | – | – | > 200
Cc1ccc(C2Nc3ccccc3NC3=C2C(=O)CC(c2ccc(Cl)cc2)C3)cc1 (centres unmarked) [Compound 6047795] | 11 ± 1.04 | – | – | –
CC(C)Oc1ccccc1C1Nc2ccccc2NC2=C1C(=O)CC(c1ccc(Cl)cc1)C2 (centres unmarked) [Compound 6047998] | 8.09 ± 0.832 | – | – | –
CCOc1cc(C2Nc3ccccc3NC3=C2C(=O)CC(c2ccc(OC)cc2)C3)cc(Br)c1O (centres unmarked) [Compound 6048306] | 18.2 ± 1.93 | – | – | –
COc1ccc(C2Nc3ccccc3NC3=C2C(=O)CC(c2ccc(Cl)cc2)C3)cc1 (centres unmarked) [Compound 6049070, 3-(4-chlorophenyl)-11-(4-methoxyphenyl)-2,3,4,5,10,11-hexahydro-1H-dibenzo[b,e][1,4]diazepin-1-one] | – | – | – | 12.5 ± 0.13
COc1ccc(C2CC(=O)C3=C(C2)Nc2ccccc2NC3c2ccc(C(C)C)cc2)cc1 (centres unmarked) [Compound 6049861] | 10.3 ± 1.28 | – | – | –
O=C1CC(c2ccccc2)CC2=C1C(c1ccccc1Cl)Nc1ccccc1N2 (centres unmarked) [Compound 6065973] | > 200 | – | – | –
CCCCOc1ccccc1C1Nc2ccccc2NC2=C1C(=O)CC(c1ccccc1)C2 (centres unmarked) [Compound 6066511] | 19.2 ± 2.16 | – | – | –
COc1ccc(C2CC(=O)C3=C(C2)Nc2ccccc2NC3c2ccc(NC(C)=O)cc2)cc1 (centres unmarked) [Compound 6067345] | > 100 | – | – | –
COc1ccc(C2CC(=O)C3=C(C2)Nc2ccccc2NC3c2ccccc2Cl)cc1OC (centres unmarked) [Compound 6076307, 11-(2-chlorophenyl)-3-(3,4-dimethoxyphenyl)-2,3,4,5,10,11-hexahydro-1H-dibenzo[b,e][1,4]diazepin-1-one] | – | – | – | 41.7 ± 0.916
COc1ccc(C2CC(=O)C3=C(C2)Nc2ccccc2NC3c2ccc(F)c(F)c2)cc1 (centres unmarked) [Compound 6079090, 11-(3,4-difluorophenyl)-3-(4-methoxyphenyl)-2,3,4,5,10,11-hexahydro-1H-dibenzo[b,e][1,4]diazepin-1-one] | – | – | – | 21.7 ± 0.247
COc1ccc(C2CC(=O)C3=C(C2)Nc2ccccc2NC3c2c(Cl)cccc2Cl)cc1 (centres unmarked) [Compound 6079349] | 31.5 ± 2.84 | – | – | –
COc1ccc(C2CC(=O)C3=C(C2)Nc2ccccc2NC3c2ccc(C)cc2)cc1OC (centres unmarked) [Compound 6105705, 3-(3,4-dimethoxyphenyl)-11-(4-methylphenyl)-2,3,4,5,10,11-hexahydro-1H-dibenzo[b,e][1,4]diazepin-1-one] | – | – | – | 25 ± 0.169
O=C1CC(c2ccccc2)CC2=C1C(c1c(F)cccc1Cl)Nc1ccccc1N2 (centres unmarked) [Compound 6237973] | 19.49 ± 0.169 | 22.6 ± 0.68 | 19.49 ± 0.169 | –
COc1ccc(C2CC(=O)C3=C(C2)Nc2ccccc2NC3c2cccc(C(F)(F)F)c2)cc1OC (centres unmarked) [Compound 6238475] | 12.5 ± 0.17 | 18.81 ± 0.157 | 12.5 ± 0.17 | –
COc1ccc(C2CC(=O)C3=C(C2)Nc2ccccc2NC3c2cccc(Br)c2)cc1OC (centres unmarked) [Compound 6239538] | 12.5 ± 0.177 | 15.5 ± 0.243 | 12.5 ± 0.177 | –
COc1ccc(C2CC(=O)C3=C(C2)Nc2ccccc2NC3c2ccc(-c3ccccc3)cc2)cc1OC (centres unmarked) [Compound 6239945, 11-(4-biphenylyl)-3-(3,4-dimethoxyphenyl)-2,3,4,5,10,11-hexahydro-1H-dibenzo[b,e][1,4]diazepin-1-one] | – | – | – | 21.8 ± 2.97
COc1ccc(C2CC(=O)C3=C(C2)Nc2ccccc2NC3c2ccccc2[N+](=O)[O-])cc1OC (centres unmarked) [Compound 6240043] | 39.6 ± 1.99 | – | – | –
COc1ccc(C2CC(=O)C3=C(C2)Nc2ccccc2NC3c2c(F)cccc2F)cc1 (centres unmarked) [Compound 6241186] | 25 ± 0.175 | – | – | –
O=C1CC(c2ccccc2)CC2=C1C(c1cccc3ccccc13)Nc1ccccc1N2 (centres unmarked) [Compound 6366991] | 22.2 ± 2.8 | – | – | –
